From patent US20240287138A1, “CYCLIC PEPTIDES FOR INHIBITING TNF RECEPTOR 1 ACTIVITY” (Merck Sharp & Dohme LLC, priority 2023, published 2024)
Numbered stars: 1 amine (or outer) side, 2 acyl side, 3 side chain; on linkers, the order of the positions; unused ones are H or OH. Bridge positions count the residues as written; N and C are the ends. Square brackets hold non-standard residues; d marks the D form. Peptide text beside a SMILES is read from it. Trp(βS-Me,7-OMe) = COc1cccc2c([C@H](C)[C@H](N)C(=O)O)c[nH]c12; X24 = O=C(O)c1ccc([C@@H](O)[C@H](N[*:1])C(=O)[*:2])cc1; Trp(7-CN) = N#Cc1cccc2c(C[C@H](N)C(=O)O)c[nH]c12; Trp(7-Cl) = N[C@@H](Cc1c[nH]c2c(Cl)cccc12)C(=O)O; Phe(4-CONH2) = NC(=O)c1ccc(C[C@H](N)C(=O)O)cc1; Phe(4-COOH) = N[C@@H](Cc1ccc(C(=O)O)cc1)C(=O)O; 4Pal(3S-Me) = C[C@@H](c1ccncc1)[C@H](N)C(=O)O; Trp(7-aza) = N[C@@H](Cc1c[nH]c2ncccc12)C(=O)O; Pip(5R-OH) = O=C(O)[C@@H]1CC[C@@H](O)CN1; X1 = O=C([C@@H]1CC[C@H](N[*:1])C1)[*:2]; Pip(4-aza) = O=C(O)[C@@H]1CNCCN1; 4Pal = N[C@@H](Cc1ccncc1)C(=O)O; NMeE = CN[C@@H](CCC(=O)O)C(=O)O; dHyp = O=C(O)[C@H]1C[C@H](O)CN1; aThr = C[C@H](O)[C@H](N)C(=O)O; Ahp(2) = CCCCC[C@H](N)C(=O)O; αMeS = C[C@](N)(CO)C(=O)O; Nle = CCCC[C@H](N)C(=O)O; Sar = CNCC(=O)O

Target: T1, TNFα-induced NF-κB signal transduction pathway (TNFR1 signaling) in THP-1 cells (Homo sapiens, UniProt P19438)
T1 sequence (P19438 30-455): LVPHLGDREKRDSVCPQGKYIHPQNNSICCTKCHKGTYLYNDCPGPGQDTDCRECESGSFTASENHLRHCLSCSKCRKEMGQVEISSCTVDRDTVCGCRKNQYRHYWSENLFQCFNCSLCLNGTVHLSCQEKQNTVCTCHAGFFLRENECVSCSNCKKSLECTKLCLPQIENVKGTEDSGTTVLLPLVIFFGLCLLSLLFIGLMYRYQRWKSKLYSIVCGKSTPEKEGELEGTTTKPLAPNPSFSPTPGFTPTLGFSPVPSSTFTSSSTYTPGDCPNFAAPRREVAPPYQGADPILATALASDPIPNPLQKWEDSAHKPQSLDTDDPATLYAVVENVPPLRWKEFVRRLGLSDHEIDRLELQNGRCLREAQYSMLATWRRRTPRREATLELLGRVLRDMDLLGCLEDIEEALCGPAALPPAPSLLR
Experiment: THP-1 Lucia NF-κB reporter cell assay, inhibition of TNFα-induced NF-κB signaling
Assay type: cell-based
Conditions: THP-1 NF-κB Lucia reporter cells, 10 ng/mL TNFα, 16-18 h, secreted luciferase; read-out: THP-1 IC50
Outline: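 THP-1 Lucia NF-κB cells, 20k/well, no selection antibiotics; peptide pre-inc 1 h 37 °C; + recombinant human TNFα 10 ng/mL final; o.n.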

| SMILES | IC50 |
| --- | --- |
| CCCC[C@@H]1NC(=O)CSC[C@@H](C(N)=O)NC(=O)[C@H]([C@@H](C)c2c[nH]c3c(OC)cccc23)NC(=O)CN(C)C(=O)[C@H](Cc2ccc(O)cc2)NC(=O)[C@H](Cc2ccc(C(=O)O)cc2)NC(=O)[C@](C)(CO)NC(=O)[C@H](Cc2c[nH]c3c(Cl)cccc23)NC(=O)[C@H](Cc2ccncc2)NC(=O)[C@H](CC(N)=O)NC(=O)[C@H](CCC(=O)O)N(C)C(=O)[C@H](Cc2c[nH]c3ncccc23)NC(=O)[C@H](CO)NC(=O)[C@H]([C@@H](C)c2ccncc2)NC1=O [SEQ ID NO. 180] ({CH2CO}-[Nle][4Pal(3S-Me)]S[Trp(7-aza)][NMeE]N[4Pal][Trp(7-Cl)][αMeS][Phe(4-COOH)]Y[Sar][Trp(βS-Me,7-OMe)]C-NH2; thioether N-14) | 2 nM |
| CCCC[C@@H]1NC(=O)[C@@H]2CC[C@@H](C2)NC(=O)[C@H]([C@@H](C)c2c[nH]c3c(OC)cccc23)NC(=O)CN(C)C(=O)[C@H](Cc2ccc(C(=O)O)cc2)NC(=O)[C@H](Cc2ccc(C(N)=O)cc2)NC(=O)[C@](C)(CO)NC(=O)[C@H](Cc2c[nH]c3c(Cl)cccc23)NC(=O)[C@H](Cc2ccncc2)NC(=O)[C@H]([C@H](C)O)NC(=O)[C@H]2C[C@H](O)CN2C(=O)[C@H](Cc2c[nH]c3ccccc23)NC(=O)[C@@H]2CC[C@@H](O)CN2C(=O)[C@H](Cc2ccncc2)NC1=O [SEQ ID NO. 187] (cyclo([4Pal][Trp(7-Cl)][αMeS][Phe(4-CONH2)][Phe(4-COOH)][Sar][Trp(βS-Me,7-OMe)][X1][Nle][4Pal][Pip(5R-OH)]W[dHyp][aThr])) | 0.5 nM |
| CCCC[C@@H]1NC(=O)[C@@H]2CC[C@@H](C2)NC(=O)[C@H]([C@@H](C)c2c[nH]c3c(OC)cccc23)NC(=O)CN(C)C(=O)[C@H]([C@H](O)c2ccc(C(=O)O)cc2)NC(=O)[C@H](Cc2ccc(C(N)=O)cc2)NC(=O)[C@](C)(CO)NC(=O)[C@H](Cc2c[nH]c3c(Cl)cccc23)NC(=O)[C@H](Cc2ccncc2)NC(=O)[C@H](CC(N)=O)NC(=O)[C@H]2C[C@H](O)CN2C(=O)[C@H](Cc2c[nH]c3ccccc23)NC(=O)[C@@H]2CC[C@@H](O)CN2C(=O)[C@H](Cc2ccncc2)NC1=O [SEQ ID NO. 188] (cyclo([4Pal][Trp(7-Cl)][αMeS][Phe(4-CONH2)][X24][Sar][Trp(βS-Me,7-OMe)][X1][Nle][4Pal][Pip(5R-OH)]W[dHyp]N)) | 0.8 nM |
| CCCC[C@@H]1NC(=O)[C@@H]2CC[C@@H](C2)NC(=O)[C@H]([C@@H](C)c2c[nH]c3c(OC)cccc23)NC(=O)CN(C)C(=O)[C@H](Cc2ccc(C(N)=O)cc2)NC(=O)[C@H](Cc2ccc(C(N)=O)cc2)NC(=O)[C@](C)(CO)NC(=O)[C@H](Cc2c[nH]c3c(Cl)cccc23)NC(=O)[C@H](Cc2ccncc2)NC(=O)[C@H](CC(N)=O)NC(=O)[C@H](CCC(=O)O)N(C)C(=O)[C@H](Cc2c[nH]c3ncccc23)NC(=O)[C@@H]2CC[C@@H](O)CN2C(=O)[C@H](Cc2ccncc2)NC1=O [SEQ ID NO. 189] (cyclo([4Pal][Trp(7-Cl)][αMeS][Phe(4-CONH2)][Phe(4-CONH2)][Sar][Trp(βS-Me,7-OMe)][X1][Nle][4Pal][Pip(5R-OH)][Trp(7-aza)][NMeE]N)) | 0.6 nM |
| CCCCC[C@@H]1NC(=O)[C@@H]2CC[C@@H](C2)NC(=O)[C@H]([C@@H](C)c2c[nH]c3c(OC)cccc23)NC(=O)CN(C)C(=O)[C@H](Cc2ccc(OC)cc2)NC(=O)[C@H](Cc2ccc(C(N)=O)cc2)NC(=O)[C@](C)(CO)NC(=O)[C@H](Cc2c[nH]c3c(C#N)cccc23)NC(=O)[C@H](Cc2ccncc2)NC(=O)[C@H](CC(N)=O)NC(=O)[C@H]2C[C@H](O)CN2C(=O)[C@H](Cc2c[nH]c3ccccc23)NC(=O)[C@@H]2CNCCN2C(=O)[C@H](Cc2ccncc2)NC1=O [SEQ ID NO. 200] (cyclo([4Pal][Trp(7-CN)][αMeS][Phe(4-CONH2)]Y(Me)[Sar][Trp(βS-Me,7-OMe)][X1][Ahp(2)][4Pal][Pip(4-aza)]W[dHyp]N)) | 1 nM |
